Here are results for 21 molecules from patent US7932246B2, “Histone deacetylase inhibitors” (Chroma Therapeutics Ltd., priority 2005, dated 2011).

Where a name gives a salt, the structure may show the parent alone.

The IC50 is the concentration at which inhibition is half-maximal. High values mean lower potency, low ones higher potency.

For assay [1], the system named is U937. In words: U937 cell inhibition assay (WST-1 cell viability). In kind it is cell-based. Conditions: Homo sapiens, U-937; U937 cells, 72-96 h, WST-1 assay, IC50 range. The protocol: (§1) Cancer cell lines (U937 and HUT) growing in log phase were harvested and seeded at 1000-2000 cells/well (100 μl final volume) into 96-well tissue culture plates. Following 24 h of growth cells were treated with compound. Plates were then re-incubated for a further 72-96 h before a WST-1 cell viability assay was conducted according to the suppliers (Roche Applied Science) instructions.
(§2) Data were expressed as a percentage inhibition of the control, measured in the absence of inhibitor, as follows:— % inhibition=100−[(S^i/S^o)×100] where S^i is the signal in the presence of inhibitor and S^o is the signal in the presence of DMSO.
(§3) Dose response curves were generated from 8 concentrations (top final concentration 10 μM, with 3-fold dilutions), using 6 replicates.
(§4) IC50 values were determined by non-linear regression analysis, after fitting the results to the equation for sigmoidal dose response with variable slope (% activity against log concentration of compound), using Graphpad Prism software.
(§5) IC50 results were allocated to one of 3 ranges as follows: […]

Assay [2] deals with HUT. As to the kind of experiment: HUT cell inhibition assay (WST-1 cell viability). In kind it is cell-based. The note with it: HUT cells, 72-96 h, WST-1 assay, IC50 range. The method, then:
as §1, §2, §3, §4, §5
(In general: Formazan colour is commonly taken as a measure of viable cells.)

In assay [3] the target is histone deacetylase activity (HeLa nuclear extract). As to the kind of experiment: HDAC fluorescent activity assay (Biomol, Fluor de Lys substrate). In kind it is biochemical. The note with it: IC50 range. The method, then: The ability of compounds to inhibit histone deacetylase activities was measured using the commercially available HDAC fluorescent activity assay from Biomol. In brief, the Fluor de Lys™ substrate, a lysine with an epsilon-amino acetylation, is incubated with the source of histone deacetylase activity (HeLa nuclear extract) in the presence or absence of inhibitor. Deacetylation of the substrate sensitises the substrate to Fluor de Lys™ developer, which generates a fluorophore.
Data are expressed as a percentage of the control, measured in the absence of inhibitor, with background signal being subtracted from all samples, as follows:— % activity=[(S^i−B)/(S^o−B)]×100 where S^i is the signal in the presence of substrate, enzyme and inhibitor, S^o is the signal in the presence of substrate, enzyme and the vehicle in which the inhibitor is dissolved, and B is the background signal measured in the absence of enzyme.
Histone deacetylase activity from crude nuclear extract derived from HeLa cells was used for screening. The preparation, purchased from 4C (Seneffe, Belgium), was prepared from HeLa cells harvested whilst in exponential growth phase. The nuclear extract is prepared according to Dignam JD1983 Nucl. Acid. […] The final buffer composition was 20 mM Hepes, 100 mM KCl, 0.2 mM EDTA, 0.5 mM DTT, 0.2 mM PMSF and 20% (v/v) glycerol.

In assay [4] the test system is HeLa cells. As to the kind of experiment: HeLa cell inhibition assay (SRB cell viability). The note with it: Homo sapiens, HeLa, 72 h, IC50 range. The assay is classed as cell-based. The protocol:
HeLa cells growing in log phase were harvested and seeded at 1000 cells/well (200 μl final volume) into 96-well tissue culture plates. Following 24 h of cell growth cells were treated with compounds (final concentration of 20 μM). Plates were then re-incubated for a further 72 h before a sulphorhodamine B (SRB) cell viability assay was conducted according to Skehan 1990 J Natl Canc Inst 82, 1107-1112.
as §2
IC50 values were determined by non-linear regression analysis, after fitting the results of eight data points to the equation for sigmoidal dose response with variable slope (% activity against log concentration of compound), using Graphpad Prism software.
as §5

Take `O=C(NO)c1cnc(N2CC3C(C2)C3NS(=O)(=O)c2ccc3ccccc3c2)nc1` (stereo not drawn) [Example 1, N-Hydroxy 2-{6-[(2-naphthylsulfonyl)amino]-3-azabicyclo[3.1.0]hex-3-yl}pyrimidine-5-carboxamide trifluoroacetate]: the IC50 is under 330 nM in assay [1], under 330 nM in assay [2], under 100 nM in assay [3] and under 330 nM in assay [4].

For `O=C(NO)c1cnc(N2CC3C(C2)C3NS(=O)(=O)c2cccs2)nc1` (stereo not drawn) [Example 2, N-Hydroxy 2-{6-[(thien-2-ylsulfonyl)amino]-3-azabicyclo[3.1.0]hex-3-yl}pyrimidine-5-carboxamide], the IC50 in assay [1], in assay [2] and in assay [4] was over 3300 nM each time.

As for `O=C(NO)c1cnc(N2CC3C(C2)C3NS(=O)(=O)c2cc(C(F)(F)F)cc(C(F)(F)F)c2)nc1` (stereo not drawn) [Example 3, N-Hydroxy 2-(6-{[(3,5-bistrifluoromethylphenyl)sulfonyl]amino}-3-azabicyclo[3.1.0]hex-3-1/1)pyrimidine-5-carboxamide], the 50% inhibitory concentration (IC50) in assay [1] is under 330 nM; in assay [2], under 330 nM; in assay [3] it was under 100 nM; in assay [4], 331 to 3300 nM.

Turning to `O=C(NO)c1cnc(N2CC3C(C2)C3NS(=O)(=O)c2ccc(OC(F)(F)F)cc2)nc1` (stereo not drawn) [Example 4, N-Hydroxy 2-(6-{[(4-trifluoromethoxyphenyl)sulfonyl]amino}-3-azabicyclo[3.1.0]hex-3-yl)pyrimidine-5-carboxamide], the IC50 is under 330 nM in assay [1], under 330 nM in assay [2], under 100 nM in assay [3] and 331 to 3300 nM in assay [4].

Consider `O=C(NO)c1cnc(N2CC3C(C2)C3NC(=O)c2ccc3ccccc3c2)nc1` (stereo not drawn) [Example 5, N-Hydroxy 2-{6-[(naphthalene-2-carbonyl)amino]-3-aza-bicyclo[3.1.0]hex-3-yl}pyrimidine-5-carboxamide], for which the concentration for half-maximal inhibition (IC50) is 331 to 3300 nM in assay [1], under 330 nM in assay [2], under 100 nM in assay [3] and 331 to 3300 nM in assay [4].

Turning to `O=C(Cc1ccc(N2CCCS2(=O)=O)cc1)NC1C2CN(c3ncc(C(=O)NO)cn3)CC21` (stereo not drawn) [Example 6, N-Hydroxy 2-(6-{2-[4-(1,1-dioxoisothiazolidin-2-yl)phenyl]acetylamino}-3-azabicyclo[3.1.0]hex-3-yl)pyrimidine-5-carboxamide], the IC50 in assay [1] is over 3300 nM; in assay [2], over 3300 nM; in assay [3], under 100 nM; in assay [4], over 3300 nM.

With `O=C(CCCCc1ccccc1)NC1C2CN(c3ncc(C(=O)NO)cn3)CC21` (stereo not drawn) [Example 7, N-Hydroxy 2-[6-(5-phenylpentanoylamino)-3-azabicyclo[3.1.0]hex-3-yl]pyrimidine-5-carboxamide], the IC50 in assay [1] is 331 to 3300 nM; in assay [2], 331 to 3300 nM; in assay [3] it was under 100 nM; in assay [4], 331 to 3300 nM.

Consider `O=C(CCCCCc1ccccc1)NC1C2CN(c3ncc(C(=O)NO)cn3)CC21` (stereo not drawn) [Example 8, N-Hydroxy 2-[6-(6-phenylhexanoyl)amino-3-azabicyclo[3.1.0]hex-3-yl]-pyrimidine-5-carboxamide], for which the half-maximal inhibitory concentration (IC50) in assay [1] is 331 to 3300 nM; in assay [2], under 330 nM; in assay [4], 331 to 3300 nM.

As to `O=C(NO)c1cnc(N2CC3C(C2)C3NC(=O)C2(c3ccccc3)CC2)nc1` (stereo not drawn) [Example 9, N-Hydroxy 2-(6-{[(1-phenylcyclopropyl)carbonyl]amino}-3-azabicyclo[3.1.0]hex-3-yl)pyrimidine-5-carboxamide], the concentration for half-maximal inhibition (IC50) in assay [1] is 331 to 3300 nM; in assay [2], 331 to 3300 nM; in assay [3], under 100 nM; in assay [4], 331 to 3300 nM.

For `CC(C(=O)NC1C2CN(c3ncc(C(=O)NO)cn3)CC21)c1ccccc1` (stereo not drawn) [Example 10, N-Hydroxy 2-{6-[(2-phenylpropanoyl)amino]-3-azabicyclo[3.1.0]hex-3-yl}pyrimidine-5-carboxamide], the 50% inhibitory concentration (IC50) in assay [1] was 331 to 3300 nM; in assay [2], 331 to 3300 nM; in assay [3] it was under 100 nM; in assay [4], 331 to 3300 nM.

As for `O=C(Cc1ccsc1)NC1C2CN(c3ncc(C(=O)NO)cn3)CC21` (stereo not drawn) [Example 11, N-Hydroxy 2-{6-[(thien-3-ylacetyl)amino]-3-azabicyclo[3.1.0]hex-3-yl}pyrimidine-5-carboxamide], the IC50 in assay [1] was over 3300 nM; in assay [2], 331 to 3300 nM; in assay [3], under 100 nM; in assay [4], 331 to 3300 nM.

As for `O=C(NO)c1cnc(N2CC3C(C2)C3NC(=O)C2CCCCC2)nc1` (stereo not drawn) [Example 12, N-Hydroxy 2-{6-[(cyclohexylcarbonyl)amino]-3-azabicyclo[3.1.0]hex-3-yl}pyrimidine-5-carboxamide], the IC50 is 331 to 3300 nM in assay [1], 331 to 3300 nM in assay [2], under 100 nM in assay [3] and 331 to 3300 nM in assay [4].

For `O=C(NO)c1cnc(N2CC3C(C2)C3NC(=O)c2ccccc2)nc1` (stereo not drawn) [Example 13, N-Hydroxy 2-[6-(benzoylamino)-3-azabicyclo[3.1.0]hex-3-yl]pyrimidine-5-carboxamide], the IC50 in assay [1], in assay [2] and in assay [4] was 331 to 3300 nM each time.

Regarding `Cn1cc(CC(=O)NC2C3CN(c4ncc(C(=O)NO)cn4)CC32)c2ccccc21` (stereo not drawn) [Example 14, N-Hydroxy 2-{6-[2-(1-methyl-1H-indol-3-yl)acetylamino]-3-aza-bicyclo[3.1.0]hex-3-yl}pyrimidine-5-carboxamide], the half-maximal inhibitory concentration (IC50) in assay [1] is 331 to 3300 nM; in assay [2], 331 to 3300 nM; in assay [3] it was under 100 nM; in assay [4], 331 to 3300 nM.

Turning to `O=C(CCCOc1ccccc1)NC1C2CN(c3ncc(C(=O)NO)cn3)CC21` (stereo not drawn) [Example 15, N-Hydroxy 2-[6-(4-phenoxybutyrylamino)-3-azabicyclo[3.1.0]hex-3-yl]pyrimidine-5-carboxamide], the half-inhibitory concentration (IC50) in assay [1] was 331 to 3300 nM; in assay [2], 331 to 3300 nM; in assay [3], under 100 nM; in assay [4], 331 to 3300 nM.

Consider `O=C(NO)c1cnc(N2CC3C(C2)C3NC(=O)c2ccc3sccc3c2)nc1` (stereo not drawn) [Example 17, N-Hydroxy 2-{6-[(1-benzothien-5-ylcarbonyl)amino]-3-azabicyclo[3.1.0]hex-3-yl}pyrimidine-5-carboxamide], for which the IC50 in assay [1] is 331 to 3300 nM; in assay [2], under 330 nM; in assay [4], 331 to 3300 nM.

`COc1ccc(CNC2C3CN(c4ncc(C(=O)NO)cn4)CC32)cc1` (stereo not drawn) [Example 21, N-Hydroxy 2-{6-[(4-methoxybenzyl)amino]-3-azabicyclo[3.1.0]hex-3-yl}pyrimidine-5-carboxamide]: the IC50 in assay [1] is under 330 nM; in assay [2] it was under 330 nM; in assay [4], 331 to 3300 nM.

As for `O=C(NO)c1cnc(N2CC3C(C2)C3NCC2CCCCC2)nc1` (stereo not drawn) [Example 25, N-Hydroxy 2-{6-[(cyclohexylmethyl)amino]-3-azabicyclo[3.1.0]hex-3-yl}pyrimidine-5-carboxamide], the half-maximal inhibitory concentration (IC50) in assay [1], in assay [2] and in assay [4] was under 330 nM in each case.

As for `O=C(NO)c1cnc(N2CC3C(C2)C3NCc2ccc(Br)cc2)nc1` (stereo not drawn) [Example 36, N-Hydroxy 2-{6-[(4-bromobenzyl)amino]-3-azabicyclo[3.1.0]hex-3-yl}pyrimidine-5-carboxamide], the results for the IC50 in assay [1], in assay [2] and in assay [3] were under 330 nM, under 330 nM and under 100 nM, respectively.

As to `CN(C)CCCN(C1C2CN(c3ncc(C(=O)NO)cn3)CC21)S(=O)(=O)c1ccc2ccccc2c1` (stereo not drawn) [Example 50, N-Hydroxy 2-{6-[(3-dimethylaminopropyl)(naphthalene-2-sulfonyl)amino]-3-azabicyclo[3.1.0]hex-3-yl}pyrimidine-5-carboxamide], the half-maximal inhibitory concentration (IC50) in assay [1] is under 330 nM; in assay [2], under 330 nM; in assay [3] it was under 100 nM.

Regarding `CN(C)CCN(C1C2CN(c3ncc(C(=O)NO)cn3)CC21)S(=O)(=O)c1ccc2ccccc2c1` (stereo not drawn) [Example 52, N-Hydroxy 2-{6-[(2-dimethylaminoethyl)(naphthalene-2-sulfonyl)-amino]-3-azabicyclo[3.1.0]hex-3-yl}pyrimidine-5-carboxamide], the values for the IC50 in assay [1], in assay [2] and in assay [4] were 331 to 3300 nM, under 330 nM and 331 to 3300 nM, respectively.
